Measurements taken from PubChem BioAssay (NCI).
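Growth conditions: 96-well plates. Treatment: test compound, 48 hours, 5 concentrations. Analysis: linear interpolation between bracketing concentrations; unreached endpoints set to highest concentration. Here, GI50 denotes the concentration required for 50% inhibition of growth. TGI denotes the concentration required for complete inhibition of growth.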

Legend:
Experiment in all cases: inhibition of tumour cell growth, NCI panel, 48 h
[1] = tested on: CAKI-1 renal
[2] = tested on: RPMI-8226 leukemia
[3] = tested on: MCF7 breast
[4] = tested on: SK-MEL-28 melanoma
[5] = tested on: SNB-19 CNS
[6] = tested on: A498 renal
[7] = tested on: SF-268 CNS
[8] = tested on: U251 CNS
[9] = tested on: PC-3 prostate
[10] = tested on: UACC-62 melanoma
[11] = tested on: BT-549 breast
[12] = tested on: HT29 colon
[13] = tested on: MDA-MB-231 breast
[14] = tested on: SF-539 CNS
[15] = tested on: A549 NSCLC
[16] = tested on: HCT-15 colon
[17] = tested on: SW-620 colon
[18] = tested on: OVCAR-4 ovarian
[19] = tested on: IGROV1 ovarian
[20] = tested on: HL-60(TB) leukemia
[21] = tested on: NCI-H522 lung
[22] = tested on: MDA-MB-435
[23] = tested on: UACC-257 melanoma
[24] = tested on: SF-295 CNS
[25] = tested on: HOP-62 NSCLC
[26] = tested on: RXF 393 renal
[27] = tested on: SNB-75 CNS
[28] = tested on: SK-MEL-5 melanoma
[29] = tested on: LOX IMVI melanoma
[30] = tested on: DU-145 prostate
[31] = tested on: MOLT-4 leukemia
[32] = tested on: CCRF-CEM leukemia
[33] = tested on: T-47D breast
[34] = tested on: OVCAR-3 ovarian
[35] = tested on: M14 melanoma
[36] = tested on: ACHN renal
[37] = tested on: HS 578T breast
[38] = tested on: SK-OV-3 ovarian
[39] = tested on: K-562 leukemia
[40] = tested on: SN12C renal
[41] = tested on: SK-MEL-2 melanoma
[42] = tested on: HOP-92 NSCLC
[43] = tested on: 786-0 renal
[44] = tested on: COLO 205 colon
[45] = tested on: EKVX NSCLC
[46] = tested on: HCT-116 colon
[47] = tested on: NCI-H226 lung
[48] = tested on: TK-10 renal
[49] = tested on: OVCAR-8 ovarian
[50] = tested on: UO-31 renal
[51] = tested on: KM12 colon
[52] = tested on: NCI-H460 lung
[53] = tested on: HCC-2998 colon
[54] = tested on: NCI/ADR-RES ovarian
[55] = tested on: NCI-H23 lung
[56] = tested on: SR leukemia
[57] = tested on: OVCAR-5 ovarian

O=C(NC1CCCCC1)NS(=O)(=O)c1ccc(-n2nc3c(c2-c2ccc(Cl)cc2)Cc2ccccc2-3)cc1
GI50 [1]: 4.52 µM | TGI [1]: 19.3 µM | GI50 [2]: 2.11 µM | TGI [2]: 5.43 µM | GI50 [3]: 15.3 µM | TGI [3]: 45.7 µM | GI50 [4]: 21.9 µM | TGI [4]: 50.5 µM | GI50 [5]: 43.7 µM | TGI [5]: > 100 µM | GI50 [6]: 18.5 µM | TGI [6]: 40.2 µM | GI50 [7]: 20.1 µM | TGI [7]: 45.6 µM | GI50 [8]: 11.7 µM | TGI [8]: 29.7 µM | GI50 [9]: 6.28 µM | TGI [9]: 24.4 µM | GI50 [10]: 10.9 µM | TGI [10]: 24 µM | GI50 [11]: 3.52 µM | TGI [11]: 17.3 µM | GI50 [12]: 34.8 µM | TGI [12]: > 100 µM | GI50 [13]: 6.43 µM | TGI [13]: 23 µM | GI50 [14]: 11.2 µM | TGI [14]: 27.7 µM | GI50 [15]: 16.6 µM | TGI [15]: 34.6 µM | GI50 [16]: 7.79 µM | TGI [16]: 31.2 µM | GI50 [17]: 2.46 µM | TGI [17]: > 100 µM | GI50 [18]: 28.8 µM | TGI [18]: > 100 µM | GI50 [19]: 18.6 µM | TGI [19]: 35.8 µM | GI50 [20]: 4.28 µM | TGI [20]: 14.6 µM | GI50 [21]: 18.3 µM | TGI [21]: 52.5 µM | GI50 [22]: 8.27 µM | TGI [22]: 28.1 µM | GI50 [23]: 18.4 µM | TGI [23]: 39.8 µM | GI50 [24]: 11.3 µM | TGI [24]: 28.9 µM | GI50 [25]: 35.8 µM | TGI [25]: > 100 µM | GI50 [26]: 20 µM | TGI [26]: 75.2 µM | GI50 [27]: 27.6 µM | TGI [27]: > 100 µM | GI50 [28]: 12.1 µM | TGI [28]: 40.2 µM | GI50 [29]: 1.94 µM | TGI [29]: 4.12 µM | GI50 [30]: 6.39 µM | TGI [30]: 20.3 µM | GI50 [31]: 2.77 µM | TGI [31]: 7.28 µM | GI50 [32]: 1.13 µM | TGI [32]: 4.36 µM | GI50 [33]: 49.8 µM | TGI [33]: > 100 µM | GI50 [34]: 13.7 µM | TGI [34]: 28.8 µM | GI50 [35]: 13.7 µM | TGI [35]: > 100 µM | GI50 [36]: 7.93 µM | TGI [36]: 21 µM | GI50 [37]: 5.03 µM | TGI [37]: 39.2 µM | GI50 [38]: 31.6 µM | TGI [38]: > 100 µM | GI50 [39]: 2.15 µM | TGI [39]: 5.89 µM | GI50 [40]: 7.54 µM | TGI [40]: 30.3 µM | GI50 [41]: 19.4 µM | TGI [41]: 44.2 µM | GI50 [42]: 6.45 µM | TGI [42]: 25 µM | GI50 [43]: 5.07 µM | TGI [43]: > 100 µM | GI50 [44]: 36.2 µM | TGI [44]: > 100 µM | GI50 [45]: 14.2 µM | TGI [45]: 37.7 µM | GI50 [46]: 4.18 µM | TGI [46]: > 100 µM | GI50 [47]: 6.15 µM | TGI [47]: 54.9 µM | GI50 [48]: 13.3 µM | TGI [48]: 26.9 µM | GI50 [49]: 11.9 µM | TGI [49]: 49.6 µM | GI50 [50]: 3.64 µM | TGI [50]: 8.67 µM | GI50 [51]: 10.6 µM | TGI [51]: 30.4 µM | GI50 [52]: 19.8 µM | TGI [52]: 46 µM

COc1ccc2c(c1)CCN1CCCc3ccc(OC)cc3C21 (centres undefined)
TGI [1]: > 100 µM | TGI [2]: > 100 µM | TGI [3]: > 100 µM | TGI [4]: > 100 µM | TGI [5]: > 100 µM | TGI [6]: > 100 µM | TGI [7]: > 100 µM | TGI [8]: > 100 µM | TGI [9]: > 100 µM | TGI [10]: > 100 µM | TGI [11]: 89.3 µM | TGI [12]: > 100 µM | TGI [13]: > 100 µM | TGI [14]: > 100 µM | TGI [53]: > 100 µM | TGI [15]: > 100 µM | TGI [16]: > 100 µM | TGI [17]: > 100 µM | TGI [18]: > 100 µM | TGI [54]: > 100 µM | TGI [19]: > 100 µM | TGI [21]: > 100 µM | TGI [55]: > 100 µM | TGI [22]: > 100 µM | TGI [23]: > 100 µM | TGI [24]: > 100 µM | TGI [25]: > 100 µM | TGI [26]: > 100 µM | TGI [27]: 83.2 µM | TGI [28]: > 100 µM | TGI [29]: > 100 µM | TGI [30]: > 100 µM | TGI [56]: > 100 µM | TGI [31]: > 100 µM | TGI [32]: > 100 µM | TGI [33]: > 100 µM | TGI [34]: > 100 µM | TGI [35]: > 100 µM | TGI [36]: > 100 µM | TGI [37]: > 100 µM | TGI [38]: > 100 µM | TGI [39]: > 100 µM | TGI [40]: > 100 µM | TGI [41]: > 100 µM | TGI [42]: > 100 µM | TGI [43]: > 100 µM | TGI [44]: > 100 µM | TGI [45]: > 100 µM | TGI [46]: > 100 µM | TGI [47]: > 100 µM | TGI [57]: > 100 µM | TGI [48]: > 100 µM | TGI [49]: > 100 µM | TGI [50]: > 100 µM | TGI [51]: > 100 µM
